Reference: publication PMC10510381, “Alkyne as a Latent Warhead to Covalently Target SARS-CoV-2 Main Protease” (Journal of Medicinal Chemistry, 2023)

Target: C145A mutant of M^pro (Severe acute respiratory syndrome coronavirus 2, UniProt P0DTD1, C3408A)
Type: cell-based, SARS-CoV-2

For `C#CC[C@H](NC(=O)C(F)(F)F)C(=O)N1C[C@H]2[C@@H]([C@H]1C(=O)N[C@H](C#C)C[C@@H]1CCNC1=O)C2(C)C` [Alk-4d, O=C1NCC[C@H]1C[C@@H](C#C)NC([C@H]2N(C([C@@H](NC(C(F)(F)F)=O)CC#C)=O)C[C@H]3[C@@H]2C3(C)C)=O], the “labeling of C145A mutant of M^pro in cells” value was “no labeling”.
